assay: Appearance of formulation (state at 25° C.); format: physicochemical; details: 25° C.; components (A) and (B) at the compounding molar ratio shown
Method: Formulations 1 to 427 shown in Tables 1A to 1D were prepared by the above-described method using the components (A) and (B) at the compounding molar ratios shown in the tables, and their states at 25° C. were observed.

SMILES | state at 25° C.
CC(C)C[C@H](N)C(=O)O.O=C(O)C(O)C(O)C(=O)O (centres unmarked) [Formulation 217] | Solid
CC(C)C[C@H](N)C(=O)O.O=C(O)c1ccccc1 [Formulation 218] | Solid
CC(C)C[C@H](N)C(=O)O.O=C1O[C@H]([C@@H](O)CO)C(O)=C1O [Formulation 219] | Solid
CC[C@H](C)[C@H](N)C(=O)O.O=CO [Formulation 221] | Solid
CC(=O)O.CC[C@H](C)[C@H](N)C(=O)O [Formulation 222] | Solid
CCC(=O)O.CC[C@H](C)[C@H](N)C(=O)O [Formulation 223] | Solid
CCCCCC(=O)O.CC[C@H](C)[C@H](N)C(=O)O [Formulation 224] | Solid
CCCC(=O)O.CC[C@H](C)[C@H](N)C(=O)O [Formulation 225] | Solid
CC[C@H](C)[C@H](N)C(=O)O.O=C(O)[C@H](O)[C@@H](O)[C@H](O)[C@H](O)CO [Formulation 226] | Solid
CC(O)C(=O)O.CC[C@H](C)[C@H](N)C(=O)O [Formulation 227] | Solid
CC[C@H](C)[C@H](N)C(=O)O.O=C(O)CCCCC(=O)O [Formulation 228] | Solid
CC[C@H](C)[C@H](N)C(=O)O.O=C(O)CCC(=O)O [Formulation 229] | Solid
CC[C@H](C)[C@H](N)C(=O)O.N[C@@H](CCC(=O)O)C(=O)O [Formulation 230] | Solid
CC[C@H](C)[C@H](N)C(=O)O.O=C(O)/C=C/C(=O)O [Formulation 231] | Solid
CC[C@H](C)[C@H](N)C(=O)O.O=C(O)C[C@H](O)C(=O)O [Formulation 232] | Solid
CC[C@H](C)[C@H](N)C(=O)O.O=C(O)CC(O)(CC(=O)O)C(=O)O [Formulation 233] | Solid
CC[C@H](C)[C@H](N)C(=O)O.O=C(O)C(O)C(O)C(=O)O (centres unmarked) [Formulation 234] | Solid
CC[C@H](C)[C@H](N)C(=O)O.O=C(O)c1ccccc1 [Formulation 235] | Solid
CC[C@H](C)[C@H](N)C(=O)O.O=C1O[C@H]([C@@H](O)CO)C(O)=C1O [Formulation 236] | Solid
N[C@@H](CO)C(=O)O.O=CO [Formulation 238] | Solid
CC(=O)O.N[C@@H](CO)C(=O)O [Formulation 239] | Solid
CCC(=O)O.N[C@@H](CO)C(=O)O [Formulation 240] | Solid
CCCCCC(=O)O.N[C@@H](CO)C(=O)O [Formulation 241] | Solid
CCCC(=O)O.N[C@@H](CO)C(=O)O [Formulation 242] | Solid
CC(O)C(=O)O.N[C@@H](CO)C(=O)O [Formulation 244] | Solid

SMILES | state at 25° C.
N[C@@H](CO)C(=O)O.O=C(O)CCCCC(=O)O [Formulation 245] | Solid
N[C@@H](CO)C(=O)O.O=C(O)CCC(=O)O [Formulation 246] | Solid
N[C@@H](CCC(=O)O)C(=O)O.N[C@@H](CO)C(=O)O [Formulation 247] | Solid
N[C@@H](CO)C(=O)O.O=C(O)/C=C/C(=O)O [Formulation 248] | Solid
N[C@@H](CO)C(=O)O.O=C(O)C(O)C(O)C(=O)O (centres unmarked) [Formulation 251] | Solid
N[C@@H](CO)C(=O)O.O=C(O)c1ccccc1 [Formulation 252] | Solid
N[C@@H](CO)C(=O)O.O=C1O[C@H]([C@@H](O)CO)C(O)=C1O [Formulation 253] | Solid
N[C@@H](CO)C(=O)O.O=C1O[C@H]([C@H](O)CO)C(O)=C1O [Formulation 254] | Solid
C[C@@H](O)[C@H](N)C(=O)O.O=CO [Formulation 255] | Solid
CC(=O)O.C[C@@H](O)[C@H](N)C(=O)O [Formulation 256] | Solid
CCC(=O)O.C[C@@H](O)[C@H](N)C(=O)O [Formulation 257] | Solid
CCCCCC(=O)O.C[C@@H](O)[C@H](N)C(=O)O [Formulation 258] | Solid
CCCC(=O)O.C[C@@H](O)[C@H](N)C(=O)O [Formulation 259] | Solid
C[C@@H](O)[C@H](N)C(=O)O.O=C(O)[C@H](O)[C@@H](O)[C@H](O)[C@H](O)CO [Formulation 260] | Solid
CC(O)C(=O)O.C[C@@H](O)[C@H](N)C(=O)O [Formulation 261] | Solid
C[C@@H](O)[C@H](N)C(=O)O.O=C(O)CCCCC(=O)O [Formulation 262] | Solid
C[C@@H](O)[C@H](N)C(=O)O.O=C(O)CCC(=O)O [Formulation 263] | Solid
C[C@@H](O)[C@H](N)C(=O)O.N[C@@H](CCC(=O)O)C(=O)O [Formulation 264] | Solid
C[C@@H](O)[C@H](N)C(=O)O.O=C(O)/C=C/C(=O)O [Formulation 265] | Solid
C[C@@H](O)[C@H](N)C(=O)O.O=C(O)C[C@H](O)C(=O)O [Formulation 266] | Solid
C[C@@H](O)[C@H](N)C(=O)O.O=C(O)CC(O)(CC(=O)O)C(=O)O [Formulation 267] | Solid
C[C@@H](O)[C@H](N)C(=O)O.O=C(O)C(O)C(O)C(=O)O (centres unmarked) [Formulation 268] | Solid
C[C@@H](O)[C@H](N)C(=O)O.O=C(O)c1ccccc1 [Formulation 269] | Solid
C[C@@H](O)[C@H](N)C(=O)O.O=C1O[C@H]([C@@H](O)CO)C(O)=C1O [Formulation 270] | Solid
C[C@@H](O)[C@H](N)C(=O)O.O=C1O[C@H]([C@H](O)CO)C(O)=C1O [Formulation 271] | Solid

same assay, conditions: Tables 1C-1 to 1D; compounding molar ratio (Component (A):Component (B)) 1:1

SMILES | state at 25° C.
N[C@@H](CS)C(=O)O.O=CO [Formulation 306] | Solid
CC(=O)O.N[C@@H](CS)C(=O)O [Formulation 307] | Solid
CCC(=O)O.N[C@@H](CS)C(=O)O [Formulation 308] | Solid
CCCCCC(=O)O.N[C@@H](CS)C(=O)O [Formulation 309] | Solid
CCCC(=O)O.N[C@@H](CS)C(=O)O [Formulation 310] | Solid
N[C@@H](CS)C(=O)O.O=C(O)[C@H](O)[C@@H](O)[C@H](O)[C@H](O)CO [Formulation 311] | Solid
CC(O)C(=O)O.N[C@@H](CS)C(=O)O [Formulation 312] | Solid
N[C@@H](CS)C(=O)O.O=C(O)CCCCC(=O)O [Formulation 313] | Solid
N[C@@H](CS)C(=O)O.O=C(O)CCC(=O)O [Formulation 314] | Solid
N[C@@H](CCC(=O)O)C(=O)O.N[C@@H](CS)C(=O)O [Formulation 315] | Solid
N[C@@H](CS)C(=O)O.O=C(O)/C=C/C(=O)O [Formulation 316] | Solid
N[C@@H](CS)C(=O)O.O=C(O)C[C@H](O)C(=O)O [Formulation 317] | Solid

Reference: US20250186321A1, “FORMULATION USING AMINO ACID AND CARBOXYLIC ACID, ORGANIC SALT, AND COMPOSITION COMPRISING SAME AND USE THEREOF” (MIYOSHI OIL & FAT CO., LTD., priority 2021, published 2025)
